Results: patent publication US20170305857A1, “N-ACYLPIPERIDINE ETHER TROPOMYOSIN-RELATED KINASE INHIBITORS” (Pfizer Limited, priority 2014, published 2017)

biological target: T1, recombinant His-tagged cytoplasmic domains of TRKA receptor (NTRK1, PV3144, aa 441-796) (Homo sapiens, UniProt P04629); assay: Isolated TRK enzyme assay (HTRF KinEASE-TK, PV3144 TrkA enzyme assay); type: biochemical; conditions: 4 nM enzyme, 40 uM ATP, 35 min, arithmetic mean where more than one reading
T1 construct: aa 441-796; His; purchased Invitrogen PV3144
T1 sequence (P04629 441-796): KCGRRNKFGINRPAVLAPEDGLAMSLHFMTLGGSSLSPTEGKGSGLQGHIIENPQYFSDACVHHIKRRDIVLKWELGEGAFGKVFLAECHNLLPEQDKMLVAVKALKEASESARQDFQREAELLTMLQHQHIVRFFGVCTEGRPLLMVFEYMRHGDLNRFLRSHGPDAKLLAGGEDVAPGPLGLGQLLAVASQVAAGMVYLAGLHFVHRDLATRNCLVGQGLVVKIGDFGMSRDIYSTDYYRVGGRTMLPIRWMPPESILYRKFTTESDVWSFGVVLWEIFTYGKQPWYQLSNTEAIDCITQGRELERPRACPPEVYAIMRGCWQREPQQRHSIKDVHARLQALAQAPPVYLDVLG
Summary of the method: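 Enzyme and ATP were preincubated with compound for 20 min at room temperature in buffer with 10 mM MgCl and 2 mM DTT. TK-substrate-Biotin was then added (1 uM final) and the reaction run for an enzyme-specific optimized time. Phosphorylation was read by HTRF, and IC50 values came from sigmoid fits of percent inhibition normalized to plate controls, averaged over replicate readings.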

Row | SMILES | IC50
1 | Cc1n[nH]c(C)c1-c1ccc(OC2CCN(C(=O)Cc3ccc(OC(F)(F)F)cc3)CC2)c(C(N)=O)c1 [Example 102, 5-(3,5-dimethyl-1H-pyrazol-4-yl)-2-[(1-{[4-(trifluoromethoxy)phenyl]acetyl}piperidin-4-yl)oxy]benzamide] | 10.1 nM
2 | NC(=O)c1cc(-c2cnn(C3CS(=O)(=O)C3)c2)ccc1O[C@@H]1CCN(C(=O)Cc2ccc(OC(F)(F)F)cc2)C[C@@H]1F [Example 1, 5-[1-(1,1-dioxidothietan-3-yl)-1H-pyrazol-4-yl]-2-{[(3S,4R)-3-fluoro-1-{[4-(trifluoromethoxy)phenyl]acetyl}piperidin-4-yl]oxy}benzamide] | 0.4 nM
3 | CC(C)(O)Cn1cc(-c2ccc(O[C@H]3CCN(C(=O)Cc4ccc(OC5CC5)cn4)C[C@@H]3F)c(C(N)=O)c2)cn1 [Example 34, 2-{[(3S,4S)-1-{[5-(cyclopropyloxy)pyridin-2-yl]acetyl}-3-fluoropiperidin-4-yl]oxy}-5-[1-(2-hydroxy-2-methylpropyl)-1H-pyrazol-4-yl]benzamide] | 7.7 nM
4 | Cn1cc(-c2ccc(OC3CCN(C(=O)Cc4ccc(SC(F)(F)F)cc4)CC3)c(C(N)=O)c2)cn1 [Example 108, 5-(1-methyl-1H-pyrazol-4-yl)-2-{[1-({4-[(trifluoromethyl)sulfanyl]phenyl}acetyl)piperidin-4-yl]oxy}benzamide] | 2.7 nM
5 | NC(=O)c1cc(-c2cn(CCO)cn2)ccc1OC1CCN(C(=O)Cc2ccc(OC(F)(F)F)cc2)CC1 [Example 115, 5-[1-(2-hydroxyethyl)-1H-imidazol-4-yl]-2-[(1-{[4-(trifluoromethoxy)phenyl]acetyl}piperidin-4-yl)oxy]benzamide] | 4.4 nM
6 | Cc1nc(-c2cnc(O[C@@H]3CCN(C(=O)Cc4ccc(OC(F)(F)F)cc4)C[C@@H]3F)c(C(N)=O)c2)c[nH]1 [Example 120] | 1.3 nM
7 | NC(=O)c1cc(-c2c[nH]cn2)cnc1O[C@H]1CCN(C(=O)Cc2ccc(OC(F)(F)F)cc2)C[C@@H]1F [Example 82, 2-{[(3S,4S)-3-fluoro-1-{[4-(trifluoromethoxy)phenyl]acetyl}piperidin-4-yl]oxy}-5-(1H-imidazol-4-yl)pyridine-3-carboxamide] | 4.2 nM
8 | Cn1cnc(-c2ccc(OC3CCN(C(=O)Cc4ccc(OC(F)(F)F)c(Cl)c4)CC3)c(C(N)=O)c2)c1 [Example 16, 2-[(1-{[3-chloro-4-(trifluoromethoxy)phenyl]acetyl}piperidin-4-yl)oxy]-5-(1-methyl-1H-imidazol-4-yl)benzamide] | 10.5 nM
9 | CC(C)c1ccc(CC(=O)N2CCC(Oc3ccc(-c4cnn(C)c4)cc3C(N)=O)CC2)cc1 [Example 109, 5-(1-methyl-1H-pyrazol-4-yl)-2-[(1-{[4-(propan-2-yl)phenyl]acetyl}piperidin-4-yl)oxy]benzamide] | 7.1 nM
10 | Cn1cnc(-c2ccc(O[C@@H]3CCN(C(=O)Cc4ccc(OC(F)(F)F)cc4)C[C@H]3F)c(C(N)=O)c2)c1 (single isomer, unassigned) [Example 112] | 6.4 nM
11 | CC(C)(N)c1ccc(-c2ccc(OC3CCN(C(=O)Cc4ccc(OC(F)(F)F)cc4)CC3)c(C(N)=O)c2)cc1 [Example 65, 4'-(2-aminopropan-2-yl)-4-[(1-{[4-(trifluoromethoxy)phenyl]acetyl}piperidin-4-yl)oxy]biphenyl-3-carboxamide] | 3.5 nM
12 | CS(=O)(=O)Cn1cc(-c2cnc(OC3CCN(C(=O)Cc4ccc(OC(F)(F)F)c(F)c4)CC3)c(C(N)=O)c2)cn1 [Example 21, 2-[(1-{[3-fluoro-4-(trifluoromethoxy)phenyl]acetyl}piperidin-4-yl)oxy]-5-{1-[(methylsulfonyl)methyl]-1H-pyrazol-4-yl}pyridine-3-carboxamide] | 11 nM
13 | CS(=O)(=O)Cn1cc(-c2cnc(OC3CCN(C(=O)Cc4ccc(OC(F)(F)F)cc4)CC3)c(C(N)=O)c2)cn1 [Example 20, 5-{1-[(methylsulfonyl)methyl]-1H-pyrazol-4-yl}-2-[(1-{[4-(trifluoromethoxy)phenyl]acetyl}pjperidin-4-yl)oxy]pyridine-3-carboxamide] | 5.7 nM
14 | Cn1cnc(-c2ccc(OC3CCN(C(=O)Cc4ccc(OC5CC5)cc4)CC3)c(C(N)=O)c2)c1 [Example 17, 2-[(1-{[4-(cyclopropyloxy)phenyl]acetyl}piperidin-4-yl)oxy]-5-(1-methyl-1H-imidazol-4-yl)benzamide] | 10.4 nM
15 | NC(=O)c1cc(-c2cn[nH]c2)ccc1O[C@H]1CCN(C(=O)Cc2ccc(OC3CC3)cn2)C[C@@H]1F [Example 84, 2-{[(3S,4S)-1-{[5-(cyclopropyloxy)pyridin-2-yl]acetyl}-3-fluoropiperidin-4-yl]oxy}-5-(1H-pyrazol-4-yl)benzamide] | 4.4 nM
16 | NC(=O)c1cc(-c2cn[nH]c2)ccc1O[C@@H]1CCN(C(=O)Cc2ccc(OC3CC3)cn2)C[C@@H]1F [Example 83, 2-{[(3S,4R)-1-{[5-(cyclopropyloxy)pyridin-2-yl]acetyl}-3-fluoropiperidin-4-yl]oxy}-5-(1H-pyrazol-4-yl)benzamide] | 1.4 nM
17 | NC(=O)c1cc(-c2cnn(C3CS(=O)(=O)C3)c2)ccc1O[C@H]1CCN(C(=O)Cc2ccc(OC(F)(F)F)cc2)C[C@H]1F [Example 76, 5-[1-(1,1-dioxidothietan-3-yl)-1H-pyrazol-4-yl]-2-{[(3R,4S)-3-fluoro-1-{[4-(trifluoromethoxy)phenyl]acetyl}pipertdin-4-yl]oxy}benzamide] | 1.2 nM
18 | NCc1ccc(-c2cnc(OC3CCN(C(=O)Cc4ccc(OC(F)(F)F)cc4)CC3)c(C(N)=O)c2)cc1 [Example 98, 5-[4-(aminomethyl)phenyl]-2-[(1-{[4-(trifluoromethoxy)phenyl]acetyl}piperidin-4-yl)oxy]pyridine-3-carboxamide] | 10.5 nM
19 | NC(=O)c1cc(-c2cn(CCO)cn2)cnc1OC1CCN(C(=O)Cc2ccc(OC(F)(F)F)cc2)CC1 [Example 116, 5-[1-(2-hydroxyethyl)-1H-imidazol-4-yl]-2-[(1-{[4-(trifluoromethoxy)phenyl]acetyl}piperidin-4-yl)oxy]pyridine-3-carboxamide] | 8.1 nM
20 | CS(=O)(=O)Cn1cc(-c2cnc(O[C@H]3CCN(C(=O)Cc4ccc(OC(F)(F)F)cc4)C[C@@H]3F)c(C(N)=O)c2)cn1 [Example 25, 2-{[(3S,4S)-3-fluoro-1-{[4-(trifluoromethoxy)phenyl]acetyl}piperidin-4-yl]oxy}-5-{1-[(methylsulfonyl)methyl]-1H-pyrazol-4-yl}pyridine-3-carboxamide] | 3.7 nM
21 | Cn1cnc(-c2ccc(O[C@H]3CCN(C(=O)Cc4ccc(OC5CC5)cc4)C[C@H]3F)c(C(N)=O)c2)c1 (racemic) [Example 40, 1:1 Cis-racemic 2-{[1-{[4-(cyclopropyloxy)phenyl]acetyl}-3-fluoropiperidin-4-yl]oxy}-5-(1-methyl-1H-imidazol-4-yl)benzamide] | 1 nM

Other lines, results leading:

Row | IC50 | SMILES
22 | 11.8 nM | NC(=O)c1cc(-c2cn[nH]c2)ncc1OC1CCN(C(=O)Cc2ccc(OC(F)(F)F)c(F)c2)CC1 [Example 169, 5-[(1-{[3-fluoro-4-(trifluoromethoxy)phenyl]acetyl}piperidin-4-yl)oxy]-2-(1H-pyrazol-4-yl)pyridine-4-carboxamide]
23 | 16.5 nM | Cc1nc(C)c(-c2ccc(OC3CCN(C(=O)Cc4ccc(OC(F)(F)F)cc4)CC3)c(C(N)=O)c2)s1 [Example 143, 5-(2,4-dimethyl-1,3-thiazol-5-yl)-2-[(1-{[4-(trifluoromethoxy)phenyl]acetyl}piperidin-4-yl)oxy]benzamide]
24 | 12.2 nM | NC(=O)c1cc(-c2cnn(CCO)c2)cnc1OC1CCN(C(=O)Cc2ccc(OC3CC3)cc2)CC1 [Example 176, 2-[(1-{[4-(cyclopropyloxy)phenyl]acetyl}piperidin-4-yl)oxy]-5-[1-(2-hydroxyethyl)-1H-pyrazol-4-yl]pyridine-3-carboxamide]
25 | 1.5 nM | Cc1nc(-c2ccc(O[C@@H]3CCN(C(=O)Cc4ccc(OC(F)(F)F)cc4)C[C@@H]3F)c(C(N)=O)c2)c[nH]1 [Example 121]
26 | 6.1 nM | CNC(=O)Cn1cnc(-c2ccc(OC3CCN(C(=O)Cc4ccc(OC(F)(F)F)cc4)CC3)c(C(N)=O)c2)c1 [Example 128, 5-{1-[2-(methylamino)-2-oxoethyl]-1H-imidazol-4-yl}-2-[(1-{[4-(trifluoromethoxy)phenyl]acetyl}piperidin-4-yl)oxy]benzamide]
27 | 2.93 nM | Cn1ncc(-c2cnc(O[C@@H]3CCN(C(=O)Cc4ccc(OC(F)(F)F)cc4)C[C@@H]3F)c(C(N)=O)c2)n1 [Example 154, 2-{[(3S,4R)-3-fluoro-1-{[4-(trifluoromethoxy)phenyl]acetyl}piperidin-4-yl]oxy}-5-(2-methyl-2H-1,2,3-triazol-4-yl)pyridine-3-carboxamide]
28 | 2.5 nM | C[C@H](O)Cn1cc(-c2ccc(OC3CCN(C(=O)Cc4ccc(OC(F)(F)F)cc4)CC3)c(C(N)=O)c2)cn1 [Example 134]
29 | 8.57 nM | Cn1cc(-c2ccc(OC3CCN(C(=O)Cc4ccc(OC5CC5)cc4)CC3)c(C(N)=O)c2)cn1 [Example 178, 2-[(1-{[4-(cyclopropyloxy)phenyl]acetyl}piperidin-4-yl)oxy]-5-(1-methyl-1H-pyrazol-4-yl)benzamide]
30 | 8.26 nM | NC(=O)c1cc(-c2cscn2)cnc1OC1CCN(C(=O)Cc2ccc(OC(F)(F)F)cc2)CC1 [Example 180]
31 | 12.8 nM | CS(=O)(=O)Cn1cc(-c2cc(C(N)=O)c(O[C@H]3CCN(C(=O)Cc4ccc(OC(F)(F)F)cc4)C[C@@H]3F)cn2)cn1 [Example 166, 5-{[(3S,4S)-3-fluoro-1-{[4-(trifluoromethoxy)phenyl]acetyl}piperidin-4-yl]oxy}-2-{1-[(methylsulfonyl)methyl]-1H-pyrazol-4-yl}pyridine-4-carboxamide]
32 | 10.3 nM | Cn1cc(-c2ccc(OC3CCN(C(=O)Nc4ccc(OC(F)(F)F)cc4F)CC3)c(C(N)=O)c2)cn1 [Example 140, 4-(2-carbamoyl-4-(1-methyl-1H-pyrazol-4-yl)phenoxy)-N-(2-fluoro-4-(trifluoromethoxy)phenyl)piperidine-1-carboxamide]
